The target of one data set is T1, CYP2D6 (Homo sapiens, UniProt P10635).
T1 construct: THY1773 (500 nmol/L) was incubated with pooled HLMs (0.5 mg protein/ml); tissue Sekisui XenoTech, LLC; host or cells: pooled human liver microsomes (50 donors)
In words: Reaction phenotyping in HLMs with quinidine. Format: in vitro ADME. The protocol:
Reaction phenotyping using cDNA expressed recombinant human CYP isoforms, CYP1A2, CYP2B6, CYP2C8, CYP2C9, CYP2C19, CYP2D6, and CYP3A4, was conducted. Each recombinant enzyme (100 pmol/ml) in potassium phosphate buffer (pH 7.4; 100 mmol/L for CYP3A4, 50 mmol/L for the others) was preincubated with [^3H]THY1773 (10 μmol/L) at 37°C for 5 min. The reactions were initiated by the addition of NADPH‐generating system (1 mmol/L NADP^+, 5 mmol/L G‐6‐P, 1 unit/ml G‐6‐PDH, and 5 mmol/L MgCl2) and incubated for 0 or 60 min. The reactions were terminated by the addition of an equal volume of acetonitrile/methanol (9:1, vol/vol), followed by centrifugation at 1650 × g for 10 min at 4°C. An aliquot of the supernatant was subjected to an Agilent 1200 HPLC system (Agilent Technologies, Inc.) equipped with a radiochemical flow detector (Radiomatic 625TR; Perkin Elmer, Inc.), and formation of metabolites was evaluated. Reaction phenotyping study was also conducted using HLMs and selective chemical inhibitors for CYP2D6 and CYP3A, which were assumed to have significant roles in THY1773 metabolism from recombinant metabolic stability. Quinidine (1 μmol/L) for CYP2D6 and ketoconazole (1 μmol/L) for CYP3A were used as selective inhibitors. THY1773 (500 nmol/L) was incubated with pooled HLMs (0.5 mg protein/ml) in potassium phosphate buffer (100 mmol/L, pH 7.4) in the absence or presence of the selective inhibitors. The reactions were initiated by the addition of NADPH generating system (1.3 mmol/L β‐NADP^+, 3.3 mmol/L G‐6‐P, 3.3 mmol/L MgCl2, and 0.4 units/ml G‐6‐PDH), and incubated at 37°C for 30 min. The reactions were terminated by the addition of two volumes of acetonitrile/methanol (9:1, vol/vol) containing the IS. […] The CLint was calculated by the method as described previously under metabolic stability in animal liver microsomes, and the fraction metabolized (fm) was calculated by Equation (1): (1) fm=1−(CLint, with inh/CLint) where CLint is intrinsic clearance without specific inhibitor and CLint,with inh is intrinsic clearance in the presence of specific inhibitor.

Another data set can be described thus: Prediction of human Vdss. From the text:
Human Vdss was also predicted by the two methods reported to be the best methods based on the prediction accuracy (Jones et al., 2011), which were Øie‐Tozer method (Obach et al., 1997) and rat–dog–human proportionality equation described (Wajima, Fukumura, Yano, & Oguma, 2003) by Equations (6) and (7), respectively: (6) Vdss[L/kg]=Vp×(1+RE/I)+Vp×fu×(Ve/Vp−RE/I)+Vr×fu/fu,t (7) log(Vdss,human)=0.07714×log(Vdss,rat)×log(Vdss,dog)+0.5147×log(Vdss,dog)+0.586 where fu,t is the fraction unbound in tissues, RE/I is the ratio of binding protein in the extracellular fluid to that in plasma, Ve, Vp, and Vr is the extracellular, plasma, and remaining fluid volume, respectively. Volumes and plasma protein levels were used as described by Obach et al. (1997).
The fold error of the difference between observed and predicted human PK parameters was calculated by dividing the predicted value by the observed value.

A short description of data set [1]: Plasma protein binding by equilibrium dialysis, human plasma. The conditions noted are these: PBPK input, experimental data. Format: in vitro ADME. The protocol:
The plasma protein binding of THY1773 in rats, dogs, and humans was evaluated by an equilibrium dialysis method using a 96‐well equilibrium dialysis plate (HTDialysis) with a 12–14 kDa cut‐off dialysis membrane. THY1773 was dissolved in dimethyl sulfoxide, and spiked with rat, dog, or human plasma at a final concentration of 300 ng/ml. An aliquot of plasma containing THY1773 and sodium phosphate buffer (pH 7.4) was added into the donor side and the receiver side of each designated well, respectively. After incubation for 6 h at a rate of 50 oscillation/min at 37°C in an air incubator, an aliquot of each side of each well was collected and mixed with acetonitrile/methanol (9:1, vol/vol) containing the IS. Each sample was centrifuged at 3974 × g for 10 min at 4°C to remove the precipitated proteins, and the resultant supernatants were subjected to LC‐MS/MS analysis. The protein binding (%) was calculated using the Boudinot formula (Boudinot & Jusko, 1984).

Data set [2] can be described thus: Blood-to-plasma ratio in rat whole blood. It is filed as in vitro ADME. The conditions noted are these: 1 μmol/L. As to the method:
The blood‐to‐plasma ratios of THY1773 were analyzed using pooled fresh whole blood (anticoagulant: EDTA‐2K) and control plasma separated from fresh whole blood in parallel from rats, dogs, and humans. Whole blood and control plasma containing 1 μmol/L THY1773 were incubated at 37°C for 30 min in a shaking water bath. The incubated whole blood was centrifuged at 2000 × g for 10 min at 4°C to obtain plasma. An aliquot of each plasma sample (i.e., isolated plasma from incubated whole blood and control plasma) was mixed with 8 volumes of acetonitrile/methanol (9:1, vol/vol) containing the IS. After centrifugation at 3974 × g for 10 min at 4°C, the supernatant was subjected to liquid chromatography/tandem mass spectrometry (LC‐MS/MS) analysis. The blood‐to‐plasma ratio was calculated by dividing the […].

A further data set deals with T2, human V1B receptor (Homo sapiens, UniProt P47901).
T2 construct: expressed in transfected cells; host or cells: 1321-N1 cells (membranes)
T2 sequence (P47901 1-424): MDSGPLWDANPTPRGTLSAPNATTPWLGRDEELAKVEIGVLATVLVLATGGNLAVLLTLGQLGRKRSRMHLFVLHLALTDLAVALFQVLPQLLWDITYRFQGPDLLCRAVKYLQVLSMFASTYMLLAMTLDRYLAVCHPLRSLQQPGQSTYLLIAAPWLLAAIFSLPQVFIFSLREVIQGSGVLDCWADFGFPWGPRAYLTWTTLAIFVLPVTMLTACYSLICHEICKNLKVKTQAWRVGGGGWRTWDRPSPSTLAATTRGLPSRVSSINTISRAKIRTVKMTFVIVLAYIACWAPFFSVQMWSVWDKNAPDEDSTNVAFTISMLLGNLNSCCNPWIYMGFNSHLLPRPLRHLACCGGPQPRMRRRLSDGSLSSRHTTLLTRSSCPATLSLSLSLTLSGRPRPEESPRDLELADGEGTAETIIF
In words: In vitro [3H]AVP binding assay, membranes of 1321-N1 cells expressing human V1B receptor. The conditions noted are these: 1321-N1 cell membranes, read-out: EC50 of RO model (Ki value for human V1B receptor binding inhibition).

T1 sequence (P10635 whole entry): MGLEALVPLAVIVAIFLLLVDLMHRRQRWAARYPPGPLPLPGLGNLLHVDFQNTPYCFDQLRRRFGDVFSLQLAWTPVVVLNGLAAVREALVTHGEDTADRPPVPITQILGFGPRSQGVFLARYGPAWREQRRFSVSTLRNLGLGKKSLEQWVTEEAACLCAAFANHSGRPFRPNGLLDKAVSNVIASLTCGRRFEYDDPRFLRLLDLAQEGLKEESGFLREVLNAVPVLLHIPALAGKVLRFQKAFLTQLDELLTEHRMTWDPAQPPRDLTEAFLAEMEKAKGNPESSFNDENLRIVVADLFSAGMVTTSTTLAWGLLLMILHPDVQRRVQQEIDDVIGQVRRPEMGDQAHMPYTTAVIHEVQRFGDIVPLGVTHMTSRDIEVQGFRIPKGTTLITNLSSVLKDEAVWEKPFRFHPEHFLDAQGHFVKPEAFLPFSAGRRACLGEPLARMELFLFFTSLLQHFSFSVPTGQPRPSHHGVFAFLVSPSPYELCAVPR

`CC(C)NC(=O)Cn1c(-c2cccc(Cl)c2)nn(-c2ccc(CCN3CCOCC3)cc2)c1=O` [THY1773] showed a CLint on CYP2D6 (HLMs, with quinidine 1 μmol/L) of 10.2 ± 0.509 µL/min/mg. Besides, on CYP2D6 (PBPK input, experimental data), the “fm,CYP2D6” value stood at 0.089. Besides, the “fm (fraction metabolized)” value at CYP2D6 (by CYP2D6, HLMs, quinidine 1 μmol/L) amounted to 0.0893. For the same compound, the results for the “Predicted human Vdss” value in “Prediction of human Vdss” (Rat–dog–human proportionality equation), in the data set “Prediction of human Vdss” (Single species scaling (rat)) and in “Prediction of human Vdss” (Øie‐Tozer method) were 1.38 L/kg, 0.349 L/kg and 0.404 L/kg, respectively. In data set [1], the “Fraction unbound in plasma” value is recorded as 0.017. Moreover, in data set [2], the Blood-to-plasma ratio came to 0.822. Further, at human V1B receptor, the Ki was determined as 3.51 nM.

(Values after paper PMC8252455, “Prediction of a clinically effective dose of THY1773, a novel V 1B receptor antagonist, based on preclinical data” (Biopharmaceutics & Drug Disposition, 2021).)
